Laboratory results published in patent EP3807270B1, “NOVEL HETEROARYL HETEROCYCLYL COMPOUNDS FOR THE TREATMENT OF AUTOIMMUNE DISEASE” (F. Hoffmann-La Roche AG, priority 2018, dated 2019).

Biological target: T1, hTLR9 (Homo sapiens, UniProt Q9NR96)
T1 sequence (Q9NR96 26-1032): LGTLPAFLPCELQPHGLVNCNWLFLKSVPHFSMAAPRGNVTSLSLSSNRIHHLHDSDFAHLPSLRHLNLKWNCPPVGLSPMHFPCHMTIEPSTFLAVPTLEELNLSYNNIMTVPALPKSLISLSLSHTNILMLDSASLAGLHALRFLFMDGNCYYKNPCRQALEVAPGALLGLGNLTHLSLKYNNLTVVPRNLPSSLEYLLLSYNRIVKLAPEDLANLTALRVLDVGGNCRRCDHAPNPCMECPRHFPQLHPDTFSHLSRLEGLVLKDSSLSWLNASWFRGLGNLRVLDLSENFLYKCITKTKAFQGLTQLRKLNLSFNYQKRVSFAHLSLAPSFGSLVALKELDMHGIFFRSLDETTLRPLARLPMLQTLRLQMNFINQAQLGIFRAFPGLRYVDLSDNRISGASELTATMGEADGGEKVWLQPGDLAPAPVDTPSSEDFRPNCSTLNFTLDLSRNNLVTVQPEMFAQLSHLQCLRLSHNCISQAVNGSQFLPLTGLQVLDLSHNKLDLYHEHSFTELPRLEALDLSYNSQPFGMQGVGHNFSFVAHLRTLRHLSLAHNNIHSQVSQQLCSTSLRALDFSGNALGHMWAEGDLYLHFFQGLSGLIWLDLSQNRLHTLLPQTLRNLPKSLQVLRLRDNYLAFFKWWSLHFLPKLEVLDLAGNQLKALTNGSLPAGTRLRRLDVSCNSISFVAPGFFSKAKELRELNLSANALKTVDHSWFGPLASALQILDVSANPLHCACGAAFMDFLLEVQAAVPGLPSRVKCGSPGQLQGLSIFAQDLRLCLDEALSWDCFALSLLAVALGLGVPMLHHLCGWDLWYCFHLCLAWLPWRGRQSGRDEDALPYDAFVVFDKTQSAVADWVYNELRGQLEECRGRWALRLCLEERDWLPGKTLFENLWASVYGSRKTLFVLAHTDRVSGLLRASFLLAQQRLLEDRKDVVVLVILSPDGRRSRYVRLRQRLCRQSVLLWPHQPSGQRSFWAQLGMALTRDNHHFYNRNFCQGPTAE
Experiment: HEK293-Blue-hTLR-9 cells assay (SEAP reporter, ODN2006 stimulation)
Assay type: cell-based
Design: host or cells: HEK293 (HEK-Blue)
Details: HEK293-Blue-hTLR9 cells, ODN2006, 20 hrs; read-out: HEK/hTLR9 IC50
In short: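 HEK293-Blue-hTLR9 cells (250,000-450,000 cells/mL) in DMEM with 10% FBS were treated with serially diluted compound (1% DMSO final) plus ODN2006 for 20 hrs at 37 °C. Supernatant SEAP activity was measured with QUANTI-Blue substrate for 2 hrs at 37 °C, reading absorbance at 620-655 nm.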

IC50	Compound
143 nM	C[C@@H]1CN(c2ccc(C#N)c3ncccc23)C[C@H](CN2CCN(c3cnc4c(c3)CN[C@H]4C)CC2)O1 (single isomer, unassigned) [Example 67]
96 nM	C[C@@H]1CN(c2ccc(C#N)c3nccnc23)C[C@H](CN2CCN(c3cc4c(cn3)C[C@H](C)NC4)CC2)O1 (single isomer, unassigned) [Example 81]
192 nM	C[C@@H]1Cc2cnc(N3CCN(C[C@H]4CN(c5ccc(C#N)c6nccnc56)C[C@@H](C)O4)CC3)cc2CN1 (single isomer, unassigned) [Example 82]
67 nM	C[C@@H]1CN(c2ccc(C#N)c3ncccc23)C[C@H](CN2CCN(c3ccc4c(n3)CN[C@H]4C)CC2)O1 (single isomer, unassigned) [Example 63]
131 nM	C[C@@H]1CN(c2ccc(C#N)c3nccnc23)C[C@H](CN2CCN(c3ccc4c(n3)CN[C@H]4C)CC2)O1 (single isomer, unassigned) [Example 78]
156 nM	Cc1nc2c(nc1N1CCN(C[C@H]3CN(c4ccc(C#N)c5ncccc45)C[C@@H](C)O3)CC1)CCNC2 [Example 60, 5-[(2R,6S)-2-methyl-6-[[4-(3-methyl-5,6,7,8-tetrahydropyrido[3,4-b]pyrazin-2-yl)piperazin-1-yl]methyl]morpholin-4-yl]quinoline-8-carbonitrile]

The next lines start with the molecule.

Compound	IC50
C[C@@H]1CN(c2ccc(C#N)c3ncccc23)C[C@H](CN2CCCN(c3nc4c(s3)CNCC4)CC2)O1 [Example 33, 5-[(2R,6S)-2-methyl-6-[[4-(4,5,6,7-tetrahydrothiazolo[5,4-c]pyridin-2-yl)-1,4-diazepan-1-yl]methyl]morpholin-4-yl]quinoline-8-carbonitrile]	90 nM
C[C@@H]1CN(c2ccc(C#N)c3ncccc23)C[C@H](CN2CC3(C2)CN(c2ccc4c(c2)CCNC4)CCO3)O1 [Example 44, 5-[(2R,6S)-2-methyl-6-[[8-(1,2,3,4-tetrahydroisoquinolin-6-yl)-5-oxa-2,8-diazaspiro[3.5]nonan-2-yl]methyl]morpholin-4-yl]quinoline-8-carbonitrile]	85 nM
C[C@@H]1CN(c2ccc(C#N)c3ncccc23)C[C@H](CN2CCN(c3ccc4c(c3)CCNC4CO)CC2)O1 (stereo partly drawn) [Example 24, 5-[(2S,6R)-2-[[4-[1-(hydroxymethyl)-1,2,3,4-tetrahydroisoquinolin-6-yl]piperazin-1-yl]methyl]-6-methyl-morpholin-4-yl]quinoline-8-carbonitrile]	46 nM
C[C@@H]1CN(c2ccc(C#N)c3ncccc23)C[C@H](CN2CCN(c3ccc4c(c3)CNC4)CC2)O1 [Example 7, 5-[(2S,6R)-2-[(4-isoindolin-5-ylpiperazin-1-yl)methyl]-6-methyl-morpholin-4-yl] quinoline-8-carbonitrile]	89 nM
C[C@@H]1CN(c2ccc(C#N)c3ncccc23)C[C@H](CN2C[C@H]3CN(c4ccc5c(n4)CCNC5)CC[C@H]32)O1 (single isomer, unassigned) [Example 55]	< 32 nM
C[C@@H]1CN(c2ccc(C#N)c3ncccc23)C[C@H](CN2CCN(c3ncc4c(n3)CNC4)CC2)O1 [Example 11, 5-[(2S,6R)-2-[[4-(6,7-dihydro-5Hpyrrolo[3,4-d]pyrimidin-2-yl)piperazin-1-yl]methyl]-6-methyl-morpholin-4-yl]quinoline-8-carbonitrile]	252 nM
